{"source": "patent US6803233B2", "about": "“Model for Alzheimer's disease and other neurodegenerative diseases” (priority 2000, dated 2004)", "key": {"caspase 3": {"test_system": "caspase 3", "assay": "ELISA assay of caspase 3 activity in cultured hippocampal slices", "type": "cell-based", "conditions": "slices cultured 12 days, treated 6 days", "method": "Hippocampal slices were cultured for 12 days and incubated with vehicle alone, ZPAD, or chloroquine (CQN; a lysosomal inhibitor) for 6 days (FIG. 28). Cultures were then homogenized, and subjected to an ELISA assay to detect the activity of caspase 3, an apoptotic protease."}, "tau protein": {"test_system": "tau protein", "conditions": "literature report; cited from earlier work"}, "basophilic granules": {"test_system": "basophilic granules", "assay": "Semithin section histology (toluidine blue) of cultured mouse hippocampal slices", "type": "cell-based", "conditions": "20 μM ZPAD, six days; wild-type and apoE-deficient slices", "method": "To prepare semithin sections, control and treated slices from both wild-type and apoE-deficient mice were fixed in a solution of 0.1M phosphate buffer (“PB”; pH 7.2), containing 1.5% paraformaldehyde and 1.5% glutaraldehyde. After a period of two to three hours, the solution was removed and the slices were rinsed three times in phosphate buffered saline (“PBS”; 50 mM phosphate buffer, 0.9% NaCl, pH 7.3). At this time, slices were postfixed in 2% osmium tetroxide in PB for one hour, dehydrated in a series of alcohols and embedded in Polybed-812. Semithin (1 μm thick) sections were cut on a Sorvall Porter-Blum ultramicrotome and stained with a solution of 0.1% toluidine blue. Digitized images were imported using a Sony DKC-5000 camera attached to a Zeiss microscope and processed using Adobe Photoshop™."}, "tau proteins": {"test_system": "tau proteins", "assay": "Immunoblot with tau-1 antibody in cultured mouse hippocampal slices", "type": "cell-based", "conditions": "six days of ZPAD; for reduction in native tau proteins (50-55 kDa): mean±s.e.m., n=6", "method": "Hippocampal slices were prepared from 10 to 13 day old C57BL/6J (wild-type) and C57BL/6J-ApoE^tm1Unc (ApoE-knockout) mice obtained from the Jackson laboratory, Bar Harbor, Me. Pups were placed under light bromo-chloro-trifluoroethane anesthesia (Sigma, St. Louis, Mo.), and killed by decapitation. After removing the brains, the hippocampus was dissected and subsequently placed on a McIlwain tissue chopper where slices (400 μm thick) were obtained and placed in a solution of cutting medium consisting of Minimum Essential Medium (MEM) with Earle's salts (Gibco, Grand Island, N.Y.), 25 mM HEPES buffer, 10 mM Tris base, 10 mM glucose, and 3 mM MgCl2, pH 7.20. Hippocampal slices were then placed onto the membranes of Millicell-CM culture inserts (Millipore Corp., Bedford, Mass.) in 6 well culture cluster plates and 1 ml of media per well using the methods described by Stoppini et al., J. Neurosci. Methods 37(2):173-82 (1991). The culture medium was described previously by Bednarski et al., J. Neurosci. 17(11):4006-21 (1997). The cultures were incubated in a 37° C. atmosphere containing 5% CO2 and the culture medium was replaced every other day until the initiation of experiments. Each culture cluster plate contained hippocampal slices from either two wild-type or two apoE-knockout mice and individual wells were used for matched control and experimental treatment groups.\nAfter maintaining the slices with normal culture medium (Bednarski et al., J. Neurosci. 17(11):4006-21 (1997)) in vitro for 12-14 days, slices were incubated with culture medium containing either 20 μM N-CBZ-L-phenylalanyl-L-alanine-diazomethyl-ketone (ZPAD; BACHEM Bioscience, Inc., Torrance, Calif.), an inhibitor of cathepsins B and L (Shaw & Dean, Biochem. J. 186:385-390 (1980); Green & Shaw, J Biol Chem. 256:1923-1928 (1981); Richardson et al., J. Cell Biol. 107: 2097-2107 (1988)) or vehicle (dimethylsulfoxide; DMSO, 0.01%-0.04%) for six days. This treatment media was exchanged every other day.\nControl and ZPAD-treated slices were collected in ice-cold 10 mM Tris-HCl harvest buffer consisting of 0.32 M sucrose, 2 mM EDTA, 2 mM EGTA, and 0.1 mM leupeptin, pH 7.4, and centrifuged at 12,000×g for 5 minutes at 4° C. At this point, the pellets were resuspended in lysis buffer (8 mM HEPES, 1 mM EDTA, 0.3 mM EGTA, pH 8.0) and sonicated. The Bradford analysis was performed (Bradford, M, Anal. Biochem 72:248-254 (1976)) and 100-120 μg of protein from each sample was denatured by boiling for 5 min with 2.5% (wt/vol) sodium dodecyl sulfate (SDS) and 3% 2-mercaptoethanol and then subjected to SDS-PAGE on 10% linear gradient gels. See Laemmli et al., J. Mol. Biol. 47:69-85 (1970). […] Relative optical densities and areas of immunobands were quantified using the NIH image analysis system."}}, "note": "“Also recorded” adds a separate entry of the source."}
{"substance": "N-CBZ-L-phenylalanyl-L-alanine-diazomethyl-ketone [ZPAD]", "values": [{"measurement": "activity of caspase 3", "setting": "caspase 3", "result": "marked increase"}, {"measurement": "29 kDa tau fragment (tau 29)", "setting": "tau protein", "result": "production of a 29-kDa tau fragment; also recorded: delayed appearance of a 29 kDa fragment"}, {"measurement": "high molecular weight isoforms of tau protein", "setting": "tau protein", "result": "degradation of high molecular weight isoforms of tau protein"}, {"measurement": "number of basophilic granules (lysosomes)", "setting": "basophilic granules", "result": "increase in the number of basophilic granules"}, {"measurement": "increase in levels of the 15-35 kDa tau fragments", "setting": "tau proteins; apoE-knockout mouse slices", "result": "277±20", "unit": "%"}, {"measurement": "reduction in native tau proteins (50-55 kDa)", "setting": "tau proteins; apoE-knockout mouse slices", "result": "35±1.1", "unit": "%"}, {"measurement": "increase in levels of the 15-35 kDa tau fragments", "setting": "tau proteins; wild-type mouse slices", "result": "240±19", "unit": "%"}, {"measurement": "reduction in native tau proteins (50-55 kDa)", "setting": "tau proteins; wild-type mouse slices", "result": "22±2.6", "unit": "%"}]}
